For assay [1], the system named is OSCC migration and invasion. The note with it: cited from earlier work.
For another assay, the target named is ATP binding sites of FAK (Homo sapiens, UniProt Q05397). The note with it: cited from earlier work.
In a further assay the test system is IL-6. The assay is described as follows: IL-6 release from OSCC cells (ELISA). In kind it is cell-based, human. The settings on record: 5 μM, fresh treatment q.d., base medium, 48 h. The method, then:
Conditioned media from 24-hour sera-deprived JSCC-1, JSCC-2 and JSCC3 cells were analyzed using the Proteome Profiler Human Cytokine XL Array (R&D Systems, Minneapolis, Minn.), with image capture and analyses via the Li-Cor Odyssey imager and Image Studio software (Li-Cor Biosciences, Lincoln, Nebr.). Sera-free conditioned media for IL-6, VEGF, TGF-α and EGF were analyzed by ELISAs (R&D Systems, Minneapolis, Minn.), with data expressed as pg/10^6 cells.
) 0.01% DMSO (vehicle control), 2) 5 μM 4-HPR, 3) 2.5 μM 2-ME, 4) 1 μg/ml tocilizumab (TOC, […]) 5) 5 μM 4-HPR+2.5 μM 2-ME, 6) 5 μM 4-HPR+1 μg/ml TOC, 7) 2.5 μM 2-ME+1 μg/ml TOC, 8) 5 μM 4-HPR+2.5 μM 2-ME+1 μg/ml TOC. Following treatment, conditioned media were collected (ELISAs for IL-6, sIL-6R, TGF-α, VEGF, EGF, R&D Systems, Minneapolis, Minn.) and nuclear and cytosolic lysates (Nuclear Extract Kit, Active Motif, Carlsbad, Calif.) isolated for EMSAs (STAT3, NFκB p50 and p65, TransAM Transcription Factor ELISAs, Active Motif) and cytosolic and nuclear extracts for Westerns (NE-PER Nuclear and Cytoplasmic Extraction Reagents, ThermoFisher Scientific, Waltham Mass.). […]

In assay [2] the target is ATP binding sites of Pyk2 (Homo sapiens, UniProt Q14289). The settings on record: cited from earlier work.
ATP binding sites of Pyk2, sequence (Q14289 whole entry): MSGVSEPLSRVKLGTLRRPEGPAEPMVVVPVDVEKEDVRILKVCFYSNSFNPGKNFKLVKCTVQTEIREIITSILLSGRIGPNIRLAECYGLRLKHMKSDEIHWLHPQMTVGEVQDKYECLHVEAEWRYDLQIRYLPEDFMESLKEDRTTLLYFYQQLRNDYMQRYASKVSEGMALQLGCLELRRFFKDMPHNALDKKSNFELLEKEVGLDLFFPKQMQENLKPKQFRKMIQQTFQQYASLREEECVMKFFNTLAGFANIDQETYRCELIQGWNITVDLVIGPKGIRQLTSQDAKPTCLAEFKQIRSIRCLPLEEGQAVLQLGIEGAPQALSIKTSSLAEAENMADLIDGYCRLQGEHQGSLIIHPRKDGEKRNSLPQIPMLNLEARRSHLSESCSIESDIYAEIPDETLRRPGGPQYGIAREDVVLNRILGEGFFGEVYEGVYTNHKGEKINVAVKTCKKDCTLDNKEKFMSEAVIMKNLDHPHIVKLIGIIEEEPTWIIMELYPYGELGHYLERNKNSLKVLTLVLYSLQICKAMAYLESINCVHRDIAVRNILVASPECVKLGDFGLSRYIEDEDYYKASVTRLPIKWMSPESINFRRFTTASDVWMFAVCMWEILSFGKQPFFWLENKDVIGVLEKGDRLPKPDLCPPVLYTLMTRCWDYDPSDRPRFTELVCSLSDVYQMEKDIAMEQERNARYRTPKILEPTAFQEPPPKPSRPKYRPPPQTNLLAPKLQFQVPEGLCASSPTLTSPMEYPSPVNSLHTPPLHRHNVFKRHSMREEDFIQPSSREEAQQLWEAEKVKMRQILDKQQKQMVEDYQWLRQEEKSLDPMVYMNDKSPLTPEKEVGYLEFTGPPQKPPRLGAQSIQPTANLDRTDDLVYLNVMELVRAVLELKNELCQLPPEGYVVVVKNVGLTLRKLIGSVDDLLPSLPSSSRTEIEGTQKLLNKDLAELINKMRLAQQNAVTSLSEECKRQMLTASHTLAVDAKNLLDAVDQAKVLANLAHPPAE
The test system of a further assay is JSCC1 cells. Description: Tumorsphere formation and retention of proliferative capacity. In kind it is cell-based, human. The method, then: JSCC1 cells were seeded at density of 5×10^5 cells in Advanced DMEM+5% FBS+1× GlutaMAX Supplement in Ultra-Low Attachment surface T-25 flasks with DMSO control (0.05%) and 5 μM 4-HPR treatment. Cell suspension cultures were treated for 3 days with fresh treatment every 24 h. While control cultures formed tumorspheres by 24 h, 4-HPR treated cellular interactions were limited to small cell aggregates. (Image scale at 100×.)
Following the treatment described in FIG. 4A above, the JSCC1 control and 4-HPR treated cells were returned to standard tissue culture flasks for seven days in 4-HPR free complete medium (Advanced DMEM+5% FBS+1× GlutaMAX Supplement). […] (Image scale 100×.)
5×10^5 JSCC1 cells (tumorsphere-formation competent unlike JSCC2 and JSCC3 cells) were plated in complete medium with either vehicle control (0.01% DMSO) or 5 μM 4-HPR in Corning Ultra-Low attachment tissue culture flasks (Sigma-Aldrich, St. Louis, Mo.) Suspension cultures received fresh medium and treatment q d for 7 days, with daily images capture via the Nikon DS-Ri+NIS Element. After 7 days, cells and medium were harvested, centrifuged, and cells replated in standard culture flasks containing complete medium. Images were obtained daily and cells harvested after 7 days in culture. Cell number (hemocytometer counts) and viability (trypan blue exclusion) were obtained.

[3] abbreviates: JSCC1 cells pretreated with 5 μM, 7 days in 4-HPR free complete medium.

Data on one molecule can be found in patent US11484591B2, “Chemoprevention using controlled-release formulations of anti-interleukin 6 agents, synthetic vitamin A analogues or metabolites, and estradiol metabolites” (OHIO STATE INNOVATION FOUNDATION, priority 2016, dated 2022).

Each structure is given as a SMILES string. “Also recorded” adds a separate entry of the source.

ATP binding sites of FAK, sequence (Q05397 whole entry): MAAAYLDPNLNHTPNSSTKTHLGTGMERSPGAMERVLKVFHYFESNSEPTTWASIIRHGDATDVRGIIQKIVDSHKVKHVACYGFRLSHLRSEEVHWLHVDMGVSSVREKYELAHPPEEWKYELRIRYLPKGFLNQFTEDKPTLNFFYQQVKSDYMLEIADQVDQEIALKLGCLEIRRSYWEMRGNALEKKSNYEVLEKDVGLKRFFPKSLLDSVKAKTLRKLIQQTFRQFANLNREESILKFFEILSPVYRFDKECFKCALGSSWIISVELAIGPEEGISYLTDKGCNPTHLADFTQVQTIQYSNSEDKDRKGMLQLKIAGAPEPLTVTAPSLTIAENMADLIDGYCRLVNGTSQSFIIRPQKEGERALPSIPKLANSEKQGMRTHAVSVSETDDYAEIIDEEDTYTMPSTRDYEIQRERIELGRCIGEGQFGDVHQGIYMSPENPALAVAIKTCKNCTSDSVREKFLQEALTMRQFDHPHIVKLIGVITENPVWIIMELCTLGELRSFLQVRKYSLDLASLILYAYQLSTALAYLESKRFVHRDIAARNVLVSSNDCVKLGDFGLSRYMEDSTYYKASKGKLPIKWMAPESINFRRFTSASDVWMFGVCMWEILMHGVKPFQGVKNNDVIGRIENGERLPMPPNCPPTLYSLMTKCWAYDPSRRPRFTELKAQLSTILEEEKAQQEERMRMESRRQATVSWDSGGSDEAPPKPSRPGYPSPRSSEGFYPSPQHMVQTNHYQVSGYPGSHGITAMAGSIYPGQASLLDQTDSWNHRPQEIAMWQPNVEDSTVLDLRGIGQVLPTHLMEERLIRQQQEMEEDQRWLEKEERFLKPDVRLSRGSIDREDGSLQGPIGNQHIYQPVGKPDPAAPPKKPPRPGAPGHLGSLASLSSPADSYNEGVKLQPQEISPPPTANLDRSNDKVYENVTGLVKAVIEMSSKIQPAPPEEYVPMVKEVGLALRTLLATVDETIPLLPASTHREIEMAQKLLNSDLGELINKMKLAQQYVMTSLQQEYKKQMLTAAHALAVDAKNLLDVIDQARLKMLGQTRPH

As for `CC1=C(/C=C/C(C)=C/C=C/C(C)=C/C(=O)Nc2ccc(O)cc2)C(C)(C)CCC1` [4-HPR, 4-hydroxy(phenyl)retinamide], in assay [1], the “OSCC migration and invasion” value is reported as “significantly inhibits”. The “binding to ATP binding site” value (on ATP binding sites of FAK; in assay [2]) was “binds with high affinity” in each case. The “increase of IL-6 release” value with IL-6 (JSCC1 cells) is given as approximately 50%; in the assay on IL-6 (JSCC2 cells), approximately 20%. Further, in the assay with JSCC1 cells (setting [3]), the “reattachment and viability after re-plating in standard flasks” value is “failed to reattach; also recorded: failed to reattach and were uniformly non-vital”. Moreover, the “trypan blue uptake after re-plating” value in the assay with JSCC1 cells (setting [3]) was found to be 100%. Besides, in the assay on JSCC1 cells (JSCC1 cells, 5 μM, low attachment flasks), the tumorsphere formation result was “inhibits tumorsphere formation”. Moreover, the “anoikis in tumorsphere-competent cells” value in the assay with JSCC1 cells (discussion) was “induced anoikis”.
